From patent US20040023295A1, “Methods and systems for analyzing complex biological systems” (priority 2001, published 2004)

System: Saccharomyces cerevisiae wild type strain BY4743
Assay: Yeast azole drug experiment AF1: metabolite analysis (GC-MS, LC-MS)
Assay type: cell-based

C[C@@H]1[C@H](O)[C@@H](C)/C=C/C=C/C=C/C=C/C=C/C=C/C=C/[C@H](O[C@@H]2O[C@H](C)[C@@H](O)[C@H](N)[C@@H]2O)C[C@@H]2O[C@](O)(C[C@@H](O)C[C@@H](O)[C@H](O)CC[C@@H](O)C[C@@H](O)CC(=O)O[C@H]1C)C[C@H](O)[C@H]2C(=O)O [Amphoteracin B]
0.2011: Fold Change of metabolite serine (platform pLC, p-Value 0.716422123)
0.6707: Fold Change of metabolite proline (platform pLC, p-Value 0.474762121)
0.2602: Fold Change of metabolite alanine/sarcosine (platform pLC, p-Value 0.540255177)
1.798: Fold Change of metabolite citrulline (platform pLC, p-Value 0.433366283)
0: Fold Change of metabolite 5hydroxyL-tryptophan (platform nLC, p-Value 1) | Fold Change of metabolite 6-benzylaminopurine (platform nLC, p-Value 1) | Fold Change of metabolite NacetylD-glucosamine (platform nLC, p-Value 1) | Fold Change of metabolite NacetylL-ornithine (platform nLC, p-Value 1) | Fold Change of metabolite abscisic acid (platform nLC, p-Value 1) | Fold Change of metabolite adenine (platform nLC, p-Value 1) | Fold Change of metabolite adenosine (platform nLC, p-Value 1) | Fold Change of metabolite anthranilic acid (platform nLC, p-Value 1) | Fold Change of metabolite argininosuccinate (platform nLC, p-Value 1) | Fold Change of metabolite benzoic acid (platform nLC, p-Value 1) | Fold Change of metabolite catechol (platform nLC, p-Value 1) | Fold Change of metabolite cinnamic acid (platform nLC, p-Value 1) | Fold Change of metabolite citricanoic/itaconi (platform nLC, p-Value 1) | Fold Change of metabolite coumaric acid (platform nLC, p-Value 1) | Fold Change of metabolite cytosine (platform nLC, p-Value 1) | Fold Change of metabolite diaminopimelic acid (platform nLC, p-Value 1) | Fold Change of metabolite dihydrofolic acid (platform nLC, p-Value 1) | Fold Change of metabolite estrone (platform nLC, p-Value 1) | Fold Change of metabolite farnesol (platform nLC, p-Value 1) | Fold Change of metabolite folic acid (platform nLC, p-Value 1) | Fold Change of metabolite gibberellic (platform nLC, p-Value 1) | Fold Change of metabolite guanine (platform nLC, p-Value 1) | Fold Change of metabolite histidine (platform nLC, p-Value 1) | Fold Change of metabolite homogentisic/uric (platform nLC, p-Value 1) | Fold Change of metabolite hydrocortisone (platform nLC, p-Value 1) | Fold Change of metabolite indole3-pyruvic acid (platform nLC, p-Value 1) | Fold Change of metabolite jasmonic acid (platform nLC, p-Value 1) | Fold Change of metabolite luteolin (platform nLC, p-Value 1) | Fold Change of metabolite malonic acid (platform nLC, p-Value 1) | Fold Change of metabolite methionine (platform nLC, p-Value 1) | Fold Change of metabolite phenylpyruvic acid (platform nLC, p-Value 1) | Fold Change of metabolite phosphoenolpyruvate (platform nLC, p-Value 1) | Fold Change of metabolite pinitol (platform nLC, p-Value 1) | Fold Change of metabolite porphobilinogen (platform nLC, p-Value 1) | Fold Change of metabolite retinoic acid (platform nLC, p-Value 1) | Fold Change of metabolite salicylic/HObenzoic (platform nLC, p-Value 1) | Fold Change of metabolite shikimic acid (platform nLC, p-Value 1) | Fold Change of metabolite sinapinic acid (platform nLC, p-Value 1) | Fold Change of metabolite thymine (platform nLC, p-Value 1) | Fold Change of metabolite 4-aminobenzoic acid (platform pLC, p-Value 1) | Fold Change of metabolite 4-methylcatechol (platform pLC, p-Value 1) | Fold Change of metabolite 5hydroxyL-tryptophan (platform pLC, p-Value 1) | Fold Change of metabolite 6benzylaminopurine (platform pLC, p-Value 1) | Fold Change of metabolite NacetylD-glucosamine (platform pLC, p-Value 1) | Fold Change of metabolite NacetylL-glutamate (platform pLC, p-Value 1) | Fold Change of metabolite abscisic acid (platform pLC, p-Value 1) | Fold Change of metabolite adenosine (platform pLC, p-Value 1) | Fold Change of metabolite allantoic acid (platform pLC, p-Value 1) | Fold Change of metabolite anthranilic acid (platform pLC, p-Value 1) | Fold Change of metabolite argininosuccinate (platform pLC, p-Value 1) | Fold Change of metabolite biotin (platform pLC, p-Value 1) | Fold Change of metabolite caffeine (platform pLC, p-Value 1) | Fold Change of metabolite citric acid TME (platform pLC, p-Value 1) | Fold Change of metabolite cytidine (platform pLC, p-Value 1) | Fold Change of metabolite cytosine (platform pLC, p-Value 1) | Fold Change of metabolite diaminopimelic acid (platform pLC, p-Value 1) | Fold Change of metabolite dihydrofolic acid (platform pLC, p-Value 1) | Fold Change of metabolite dipicolinic acid (platform pLC, p-Value 1) | Fold Change of metabolite folic acid (platform pLC, p-Value 1) | Fold Change of metabolite glucosamine (platform pLC, p-Value 1) | Fold Change of metabolite glucosamine6PO4 (platform pLC, p-Value 1) | Fold Change of metabolite histidine (platform pLC, p-Value 1) | Fold Change of metabolite hydrocortisone (platform pLC, p-Value 1) | Fold Change of metabolite itaconic acid dimes (platform pLC, p-Value 1) | Fold Change of metabolite luteolin (platform pLC, p-Value 1) | Fold Change of metabolite niacinamide (platform pLC, p-Value 1) | Fold Change of metabolite nopaline (platform pLC, p-Value 1) | Fold Change of metabolite phosphoenolpyruvate (platform pLC, p-Value 1) | Fold Change of metabolite progesterone (platform pLC, p-Value 1) | Fold Change of metabolite riboflavin (platform pLC, p-Value 1) | Fold Change of metabolite sugar-phosphate (platform pLC, p-Value 1) | Fold Change of metabolite thiamine (platform pLC, p-Value 1) | Fold Change of metabolite thymine (platform pLC, p-Value 1) | Fold Change of metabolite tryptophan (platform pLC, p-Value 1)
0.5237: Fold Change of metabolite pipecolic acid (platform pLC, p-Value 0.556385814)
1.319: Fold Change of metabolite NacetylL-ornithine (platform pLC, p-Value 0.392871315)
1.178: Fold Change of metabolite selenoDL-methionine (platform pLC, p-Value 0.888275646)
0.3981: Fold Change of metabolite glutamine/lysine (platform pLC, p-Value 0.618892728)
0.4341: Fold Change of metabolite glutamate (platform pLC, p-Value 0.563874982)
−0.9989: Fold Change of metabolite nicotinic acid (platform pLC, p-Value 7.53474E−05)
0.3145: Fold Change of metabolite threonine/homoserin (platform pLC, p-Value 0.668114613)
0.01279: Fold Change of metabolite 4ambutyrate/dimglyc (platform pLC, p-Value 0.920009792)
0.3299: Fold Change of metabolite methionine (platform pLC, p-Value 0.367502423)
0.2057: Fold Change of metabolite hypoxanthine (platform pLC, p-Value 0.74082632)
−0.4606: Fold Change of metabolite mevalonic lactone (platform pLC, p-Value 0.251617022)
0.7598: Fold Change of metabolite guanosine (platform pLC, p-Value 0.886514477)
0.1153: Fold Change of metabolite adenine (platform pLC, p-Value 0.892253251)
−0.1684: Fold Change of metabolite pyridoxine (platform pLC, p-Value 0.776529987)
0.2746: Fold Change of metabolite leucine/isoleucine/ (platform pLC, p-Value 0.723852356)
0.3594: Fold Change of metabolite aspartic acid (platform pLC, p-Value 0.626001257)
0.4662: Fold Change of metabolite arginine (platform pLC, p-Value 0.522893347)
0.6344: Fold Change of metabolite asparagine (platform pLC, p-Value 0.526485859)
0.5049: Fold Change of metabolite ornithine (platform pLC, p-Value 0.48461244)
0.4036: Fold Change of metabolite phenylalanine (platform pLC, p-Value 0.573569375)
−0.03348: Fold Change of metabolite glutathione (platform pLC, p-Value 0.951676383)
0.4543: Fold Change of metabolite mannitol (platform pLC, p-Value 0.575742486)
0.4703: Fold Change of metabolite DL-aminoadipic acid (platform pLC, p-Value 0.229215472)
